# Several values for one entry are separate records, joined by “and”; a condition that tells them apart may be missing. Equal entries are not always repeated.
# Tests used:
# [1] = system: tubulin isolated from calf brain; assay type: biochemical
# [2] = system: human ovarian carcinoma xenograft A2780; assay: Antitumor activity by parenteral administration to rats, A2780 xenograft; assay type: in vivo, nude rats
# Protocol: The required number of animals needed to detect a meaningful response were pooled at the start of the experiment and each was given a subcutaneous implant of a tumor fragment (≈50 mg) with a 13-gauge trocar. For treatment of early-stage tumors, the animals were again pooled before distribution to the various treatment and control groups. For treatment of animals with advanced-stage disease, tumors were allowed to grow to the pre-determined size window (tumors outside the range were excluded) and animals were evenly distributed to various treatment and control groups. Treatment of each animal was based on individual body weight. Treated animals were checked daily for treatment related toxicity/mortality. Each group of animals was weighed before the initiation of treatment (Wt1) and then again following the last treatment dose (Wt2). The difference in body weight (Wt2−Wt1) provides a measure of treatment-related toxicity.
# Tumor response was determined by measurement of tumors with a caliper twice a week, until the tumors reach a predetermined “target” size of 1 gm. Tumor weights (mg) were estimated from the formula: Tumor weight=(length×width^2)÷2
# Antitumor activity was evaluated at the maximum tolerated dose (MTD) which is defined as the dose level immediately […] which excessive toxicity (i.e. more than one death) occurred. The MTD was frequently equivalent to OD. When death occurred, the day of death was recorded. Treated mice dying prior to having their tumors reach target size were considered to have died from drug toxicity. No control mice died bearing tumors less than target size. Treatment groups with more than one death caused by drug toxicity were considered to have had excessively toxic treatments and their data were not included in the evaluation of a compound's antitumor efficacy.
# Tumor response end-point was expressed in terms of tumor growth delay (T−C value), defined as the difference in time (days) required for the treated tumors (T) to reach a predetermined target size compared to those of the control group (C).
# To estimate tumor cell kill, the tumor volume doubling time was first calculated with the formula: TVDT=Median time (days) for control tumors to reach target size−Median time (days) for control tumors to reach half the target size and Log cell kill=T−C÷(3.32×TVDT)
# Compound A was evaluated versus the human ovarian carcinoma xenograft A2780 grown in nude rats. […] In comparison, Compound B produced 3.3 LCK at its MTD (2.4 mg/kg/inj, IV, every 8 days×2).
# [3] = system: Pat-7 human ovarian carcinoma; settings: mouse, in vivo, iv
# [4] = system: Pat-26 human pancreatic carcinoma; settings: mouse, in vivo, iv
# HCT116/VM46 cells = assay: In vitro cytotoxicity assay (MTS), HCT116/VM46; assay type: cell-based, human; settings: concentration for 50% growth inhibition, HCT116/VM46 versus sensitive HCT116
# [5] = system: A2780Tax human ovarian carcinoma; design: species or system nude mice; settings: mouse, in vivo, iv
# [6] = system: HCT116/VM46 human colon carcinoma; design: species or system nude mice; settings: mouse, in vivo, iv
# [7] = system: Pat-21 paclitaxel resistant breast cancer model; design: species or system nude mice; settings: mouse, in vivo, iv
# [8] = cited from earlier work
# in vitro = settings: human, Caco-2
compound,measurement,setting,value
"C/C(=C\c1csc(C)n1)[C@@H]1C[C@@H]2O[C@]2(C)CCC[C@H](C)[C@H](O)[C@@H](C)C(=O)C(C)(C)[C@@H](O)CC(=O)N1 (relative stereo) [Compound B, [1S-[1R*,3R*(E),7R*,10S*,11R*,16S*]]-7,11-dihydroxy 8,8,10,12,16-pentamethyl-3-[1-methyl-2-(2-methyl-4-thiazolyl)ethenyl-17-oxa-4-azabicyclo[14.1.0]heptadecane-5,9-dione]","Polymerization Potency, EC0.01",[1],3.5 µM
same,Ratio of Polymerization Potency of Analog/Paclitaxel,[1],0.4
same,LCK,"[2]; A2780 in nude rats, IV, every 8 days×2, at MTD",3.3
same,MTD,"[2]; nude rats bearing A2780, IV, every 8 days×2",2.4 mg/kg/inj
same,LCK,[3],1.9
same,LCK (gross log cell kill),[4],1.2 and 1.2^3
"C/C(=C\c1csc(C)n1)[C@@H]1C[C@@H]2O[C@@H]2CCC[C@H](C)[C@H](O)[C@@H](C)C(=O)C(C)(C)[C@@H](O)CC(=O)O1 [BMS-212188 (Epothilone A), Epothilone A]","Polymerization Potency, EC0.01",[1],2.0 µM
same,Ratio of Polymerization Potency of Analog/Paclitaxel,[1],0.4
CC(=O)O[C@H]1C(=O)[C@@]2(C)[C@H]([C@H](OC(=O)c3ccccc3)[C@]3(O)C[C@H](OC(=O)[C@H](O)[C@@H](NC(=O)c4ccccc4)c4ccccc4)C(C)=C1C3(C)C)[C@]1(OC(C)=O)CO[C@@H]1C[C@@H]2O [Paclitaxel],"R/S, or resistance ratio",HCT116/VM46 cells,155 fold
same,LCK (gross log cell kill),[5],0.8^3
same,LCK (gross log cell kill),[6],0.55^3
same,LCK (gross log cell kill),[7],0.3^3
same,LCK (gross log cell kill),[3],0.8^3
same,LCK (gross log cell kill),[4],0.4
CCCC(=O)Nc1ccc(OCC(O)CNC(C)C)c(C(C)=O)c1 (stereo not drawn) [acebutalol],extent of absorption in humans (% absorbed),[8],40%
CN/C(=N/CCSCc1nc[nH]c1C)NC#N [cimetidine],extent of absorption in humans (% absorbed),[8],95%
same,Papp,in vitro,4.9 ×10⁻⁶ cm/s
OC[C@@H](O)[C@@H](O)[C@H](O)[C@H](O)CO [mannitol],extent of absorption in humans (% absorbed),[8],15%
same,Papp,in vitro,3.2 ×10⁻⁶ cm/s
Epothilone B [BMS-205535 (Epothilone B)],"Polymerization Potency, EC0.01",[1],1.8 µM
same,Ratio of Polymerization Potency of Analog/Paclitaxel,[1],0.3
